In patent US6399631B1, “Carbazole neuropeptide Y5 antagonists” (Pfizer Inc., priority 1999, dated 2002):

Assays:
neuropeptide Y receptor = conditions: in vitro test for neuropeptide Y receptor antagonism; cited from earlier work
Y1 = molecular target: T1, Y1 (Homo sapiens, UniProt P25929); assay: endogenous NPY response in Bowes melanoma cell host; conditions: at 10 uM; human Bowes melanoma cell line (HMCB)
T1 sequence (P25929 1-384): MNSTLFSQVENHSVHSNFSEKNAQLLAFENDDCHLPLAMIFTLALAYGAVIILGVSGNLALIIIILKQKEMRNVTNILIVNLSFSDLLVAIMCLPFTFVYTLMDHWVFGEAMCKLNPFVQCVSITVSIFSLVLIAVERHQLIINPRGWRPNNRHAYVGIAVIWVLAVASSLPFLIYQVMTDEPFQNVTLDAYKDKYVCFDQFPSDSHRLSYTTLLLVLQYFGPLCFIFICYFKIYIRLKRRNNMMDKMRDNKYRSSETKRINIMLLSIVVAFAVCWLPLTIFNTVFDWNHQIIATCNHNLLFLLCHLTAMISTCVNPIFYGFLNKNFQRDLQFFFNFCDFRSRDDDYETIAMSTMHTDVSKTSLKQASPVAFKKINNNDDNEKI

SMILES | IC50 (neuropeptide Y receptor) [nM] | endogenous NPY response (Y1)
Cc1cc(N2CCCC2)cc(/C=C/c2cccc(C(F)(F)F)c2)n1 [(E)-2-methyl4-pyrrolidino-6-[2-(3-trifluoromethylphenyl)vinyl]pyridine] | 4.1 | 
NC(N)=NCCC[C@@H](NC(=O)C(c1ccccc1)c1ccccc1)C(=O)NCc1ccc(O)cc1 [BIBP3226] |  | completely blocked
